This is an account of results in publication PMC7525093, “Bis-Quinolinium Cyclophane Blockers of SK Potassium Channels Are Antagonists of M3 Muscarinic Acetylcholine Receptors” (Frontiers in Pharmacology, 2020).

Test [1] concerns mouse lung lower airways. Nature of the test: Bronchial diameter changes in mouse lung slices. Conditions: 3.5 μM UCL 1684; 0.5 μM carbachol. The method, then:
Experiments using mouse lung slices were conducted as described ([Sanderson, 2011]). Eight-week-old Balb/C mice were sacrificed by deep isoflurane anesthesia followed by cervical dislocation. Trachea were isolated, cannulated with a blunt needle and the lungs filled with 3 ml of Hanks balanced salt solution (HBSS) with 2% low-temperature melt agarose at 37°C followed by 0.5 ml of air to clear the airways of agarose. The mouse thoracic cavity was exposed and the lungs chilled with an ice bath. After gelling of the agarose, the lungs were removed and 200 μm sections made with a Leica Vibratome VT1200. The sections were placed in DMEM in a tissue-culture incubator at 37°C for up to 8 h. Experiments measuring diameter changes were conducted using an inverted 10X phase contrast objective and oblique lighting in a constant perfusion (0.5 ml/min) bath of HBSS at 22°C solution.

Test [2] deals with T1, human M3 muscarinic acetylcholine receptor (Homo sapiens, UniProt P20309).
T1 construct: host or cells: CHO-K1 cells, stably transfected
T1 sequence (P20309 whole entry): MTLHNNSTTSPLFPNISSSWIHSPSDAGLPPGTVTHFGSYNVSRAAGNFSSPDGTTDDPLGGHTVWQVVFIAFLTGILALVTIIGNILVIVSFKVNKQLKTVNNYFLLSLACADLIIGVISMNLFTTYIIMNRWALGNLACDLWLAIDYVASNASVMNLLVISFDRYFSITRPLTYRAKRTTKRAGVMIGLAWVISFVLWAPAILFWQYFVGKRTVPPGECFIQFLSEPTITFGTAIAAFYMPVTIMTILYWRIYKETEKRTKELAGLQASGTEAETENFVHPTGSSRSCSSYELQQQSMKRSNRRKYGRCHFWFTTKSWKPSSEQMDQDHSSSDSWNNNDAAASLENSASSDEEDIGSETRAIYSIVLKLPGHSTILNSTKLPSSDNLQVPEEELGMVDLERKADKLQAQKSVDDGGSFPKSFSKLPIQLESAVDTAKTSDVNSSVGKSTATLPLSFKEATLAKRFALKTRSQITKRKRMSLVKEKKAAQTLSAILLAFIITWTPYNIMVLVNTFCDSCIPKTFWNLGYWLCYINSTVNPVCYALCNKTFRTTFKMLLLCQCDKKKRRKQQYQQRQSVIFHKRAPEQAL
The test is described as follows: R-CEPIAer ER calcium assay of Gq-coupled receptor activation, M3-transfected CHO-K1 cells. The test is classed as cell-based. How it is done: (§1) The binding of antagonists to Gq-coupled receptors was determined by measuring IP3-mediated calcium depletion from the endoplasmic reticulum (ER). This was accomplished using CHO-K1 cells stably transfected with human M3 muscarinic acetylcholine receptor (CEM3000000, cDNA Resource Center, Bloomsburg University) and R-CEPIAer, a low affinity ER-targeted calcium indicator fluorescent protein ([Suzuki et al., 2014]). R-CEPIAer reporting of ER calcium concentration was assessed using 564 nm excitation light (>590 long-pass emission) at 20 second intervals on a Nikon swept-field confocal microscope using slit-scan mode, 2x2 Binning, and 100 millisecond frames. F/Fmax was fluorescence intensity normalized to maximal fluorescence intensity during the experiment. The response of cells to Gq-coupled receptor agonist were measured as the change in F/Fmax (ΔF/Fmax) from preagonist value to fluorescence minimum during agonist application (that occurs by IP3-mediated ER calcium depletion). […] Perfusion of each agonist application was for 2 min, while the antagonist overlapped and preceded the second agonist application by 3 min. […] IC50 was calculated by assaying fractional inhibition using a dose-response of antagonist concentrations (i.e. Figure 1D ). For assays of other receptors such as the M1 and M5 muscarinic receptors, H1 histamine and P2Y1 purinergic receptors, these receptors were transiently co-transfected with the pCMV R-CEPIAer plasmid (a gift from Masamitsu Iino (Addgene plasmid # 58216; http://n2t.net/addgene:58216; RRID : Addgene_58216)) into CHO cells using polyethylenimine [according to previous methods ([Longo et al., 2013])]. IC50 and EC50 values were estimated by fitting the dose-response relationship to a Hill equation.
To obtain a pKB using a Schild analysis ([Arunlakshana and Schild, 1959]), the acetylcholine EC50 was measured in the absence of UCL1684 and EC50′ measured in the presence of increasing concentrations of UCL1684. These values were used to calculate a dose ratio (DR = EC50′/EC50) for each UCL1684 concentration. The log(DR − 1) was plotted vs. log UCL1684 concentrations and fit to a linear equation where the theoretical X-intercept was used to estimate a pKB.

Test [3] addresses T2, M1 muscarinic receptor (Homo sapiens, UniProt P11229).
T2 construct: expressed in transfected cells; host or cells: CHO cells, transiently co-transfected with pCMV R-CEPIAer
T2 sequence (P11229 1-460): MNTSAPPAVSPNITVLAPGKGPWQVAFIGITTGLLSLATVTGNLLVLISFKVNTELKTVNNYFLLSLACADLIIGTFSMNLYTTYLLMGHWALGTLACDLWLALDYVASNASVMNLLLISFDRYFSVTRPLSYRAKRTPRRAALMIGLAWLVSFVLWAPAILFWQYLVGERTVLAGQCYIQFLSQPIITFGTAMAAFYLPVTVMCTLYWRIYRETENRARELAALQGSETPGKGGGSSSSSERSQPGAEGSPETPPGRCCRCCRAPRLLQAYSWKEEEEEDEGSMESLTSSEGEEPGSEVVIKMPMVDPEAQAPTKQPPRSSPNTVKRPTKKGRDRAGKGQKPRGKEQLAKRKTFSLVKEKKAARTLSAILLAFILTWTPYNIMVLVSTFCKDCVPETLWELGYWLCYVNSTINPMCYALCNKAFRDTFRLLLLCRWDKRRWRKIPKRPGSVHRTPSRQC
Nature of the test: R-CEPIAer ER calcium assay, CHO cells transiently transfected with M1 receptor. It is filed as cell-based. How it is done:
[Worded in the source for another target; used here, by the source, with some conditions changed.] as §1, with “For assays of other receptors such as the M1 and M5 muscarinic receptors, H1 histamine and P2Y1 purinergic receptors, these receptors were transiently co-transfected with the pCMV R-CEPIAer plasmid (a gift from Masamitsu Iino (Addgene plasmid # 58216; http://n2t.net/addgene:58216; RRID : Addgene_58216)) into CHO cells using polyethylenimine [according to previous methods ([Longo et al., 2013])]. IC50 and EC50 values were estimated by fitting the dose-response relationship to a Hill equation.” left out

SMILES strings stand for the structures. Several values for one entry are separate records, joined by “and”; a condition that tells them apart may be missing. Equal entries are not always repeated.

As for `c1cc2cc(c1)C[n+]1ccc(c3ccccc31)NCc1ccc(cc1)CNc1cc[n+](c3ccccc13)C2` [UCL 1684, 6,12,19,20,25,26-Hexahydro-5,27:13,18:21,24-trietheno-11,7-metheno-7H-dibenzo [b,n] [1,5,12,16]tetraazacyclotricosine-5,13-diium dibromide], in test [1], the “Bronchial diameter during second carbachol challenge normalized to first challenge” value was 178.3% and 178.3 ± 19.0%. For the same compound, in test [2], the half-inhibitory concentration (IC50) (commonly the concentration that gives 50% inhibition) amounted to 1500 nM and the “Nature of antagonism at M3 receptors” value is on record as “competitive antagonist”. Besides, the “Hill slope of inhibition curve, M3 receptor” value in test [2] (0.5 μM carbachol, Hill equation fit) is listed as 1.8 ± 0.29. Also, in test [2] (5 μM antagonist, 0.5 μM carbachol, 0 = none, 1 = complete inhibition), the “Fractional inhibition of second carbachol response” value was 0.99. Also, the Schild plot slope in test [2] (linear regression of log(DR-1) vs log UCL1684) came to 0.94. The Kb in test [2] (read-out: Ki / KB from Schild analysis) was found to be 155 nM. Further, in test [3], the IC50 stood at 120 nM. The “Hill slope of inhibition curve, M1 receptor” value in test [3] (0.5 μM carbachol) stood at 0.67 ± 0.5.
